# Reference: ChEMBL document CHEMBL5230106, “The wide-spectrum antimicrobial effect of novel N-alkyl monoquaternary ammonium salts and their mixtures; the QSAR study against bacteria” (Eur J Med Chem, 2020)
# Active and inactive are the calls of the source. The calls are words filed in the database; no cut-off is given here.
# Tests used:
# Clostridioides difficile = assay: Antibacterial activity against Clostridium difficile at 0.5 % measured after 8 mins by broth microdilution analysis; type: functional, organism-based
# CHO-K1 = assay: Cytotoxicity against CHO-K1 cells assessed as reduction in cell viability incubated for 24 hrs by MTT assay; type: toxicity, cell-based, Cricetulus griseus; conditions: chinese hamster, cho-k1, 24 h
# Human alphaherpesvirus 3 = assay: Antiviral activity against Varicella zoster-virus assessed as reduction factor at 0.005 % measured for 5 mins by crystal violet staining based microscopic analysis; type: functional
# Fusarium dimerum = assay: Antifungal activity against Fusarium dimerum EXF-8427 assessed as inhibition of fungal growth at 100 uM measured after 72 hrs; type: functional, organism-based
# Penicillium chrysogenum = assay: Antifungal activity against Penicillium chrysogenum EXF-1818 assessed as inhibition of fungal growth at 100 uM measured after 72 hrs; type: functional, organism-based
# Aspergillus niger = assay: Antifungal activity against Aspergillus niger EXF-10185 assessed as inhibition of fungal growth at 100 uM measured after 72 hrs; type: functional, organism-based
# Aspergillus versicolor = assay: Antifungal activity against Aspergillus versicolor EXF-8692 assessed as inhibition of fungal growth at 100 uM measured after 72 hrs; type: functional, organism-based
SMILES,Activity (CHO-K1),fold change (FC) (Human alphaherpesvirus 3),other results
CCCCCCCCCCCC[N+]1(CCO)CCOCC1.[Br-],Toxic,–,Activity (Clostridioides difficile): Active
CCCCCCCC[N+](C)(CCCCCCCC)Cc1ccccc1.[Br-],–,3.84,–
CCCCCCCCCCCCCCCC[N+]1(CCO)CCOCC1.[Br-],Toxic,–,–
CCCCCCCCCCCCCCCC[N+](C)(C)CCCCCCCC.[Br-],–,3.83,–
CCCCCCCCCCCC[N+](C)(C)CCCCCCCC,–,–,Activity (Clostridioides difficile): Active; Activity (Fusarium dimerum): Active; Activity (Penicillium chrysogenum): Active; Activity (Aspergillus niger): Active; Activity (Aspergillus versicolor): Active
CCCCCCCCCCCCCCCC[n+]1cccc(OC)c1.[Br-],–,4.68,–
CCCCCCCCCCCCCC[N+]1(CCO)CCOCC1.[Br-],Toxic,–,–
